Details: Liquid, Closed cell (Static) method

Cc1ccccc1 [toluene]
Details	vapor or sublimation pressure [kPa]
323.16 K	12.29
325.16 K	13.37
327.15 K	14.53
329.15 K	15.77
332.15 K	17.8
334.25 K	19.35
337.65 K	22.08
339.65 K	23.83
342.3 K	26.32
342.45 K	26.47

c1ccccc1 [benzene]
Details	vapor or sublimation pressure [kPa]
303.15 K	15.63
313.15 K	24.45
323.15 K	36.6
333.15 K	53.12
343.15 K	74.82

c1ccsc1 [thiophene]
Details	vapor or sublimation pressure [kPa]
303.15 K	13.29
308.15 K	16.61
313.15 K	20.59
318.15 K	25.31
323.15 K	30.87
328.15 K	37.4
333.15 K	44.98

O [water]
Details	vapor or sublimation pressure [kPa]
322.13 K	11.12
329.07 K	16.75
337.68 K	24.18
341.81 K	29.68
347.45 K	37.91
350.9 K	43.56
355.11 K	51.68
358.38 K	58.49

From the NIST ThermoML archive (doi:10.1021/acs.jced.5b00760)
